Assay results: ChEMBL document CHEMBL5321272 (J Med Chem, 2023)
Active and inactive are the calls of the source. No cut-off for these calls is given here.

What was measured:
[1] = target: Receptor-type tyrosine-protein kinase FLT3 (Homo sapiens, UniProt P36888); assay: Inhibition of wild type FLT3 (unknown origin) using peptide substrate TK-S and ATP as substrate incubated for 1 hr by HTRF assay
[2] = target: hERG (KCNH2) (Homo sapiens, UniProt Q12809); assay: Inhibition of hERG expressed in HEK293 cells at 20 uM by whole cell patch clamp analysis; type: toxicity, cell-based; settings: HEK293 cells expressing hERG
[3] = target: Mast/stem cell growth factor receptor Kit (Homo sapiens, UniProt P10721); assay: Inhibition of c-KIT (unknown origin) using peptide substrate TK-S and ATP as substrate incubated for 1 hr by HTRF assay; type: toxicity
[4] = tested on: BaF3; assay: Antiproliferative activity against mouse BaF3 cells harboring FLT3 D835V mutant assessed as reduction in cell viability incubated for 72 hrs by CellTiter 96 Aqueous One Solution Cell Proliferation Assay; type: functional, cell-based
[5] = Selectivity ratio of IC50 for JAK3 (unknown origin) to IC50 for FLT3-ITD mutant (unknown origin)
[6] = Selectivity ratio of IC50 for EPHA1 (unknown origin) to IC50 for FLT3-ITD mutant (unknown origin)
[7] = Selectivity ratio of IC50 for BMX (unknown origin) to IC50 for FLT3-ITD mutant (unknown origin)
[8] = Selectivity ratio of IC50 for BLK (unknown origin) to IC50 for FLT3-ITD mutant (unknown origin)
[9] = Selectivity ratio of IC50 for IGF1R (unknown origin) to IC50 for FLT3-ITD mutant (unknown origin)
[10] = Selectivity ratio of IC50 for LYN (unknown origin) to IC50 for FLT3-ITD mutant (unknown origin)
[11] = Selectivity ratio of IC50 for PKA (unknown origin) to IC50 for FLT3-ITD mutant (unknown origin)
[12] = Selectivity ratio of IC50 for Aurora kinase A (unknown origin) to IC50 for FLT3-ITD mutant (unknown origin)
[13] = Selectivity ratio of IC50 for CDK1 (unknown origin) to IC50 for FLT3-ITD mutant (unknown origin)
[14] = Selectivity ratio of IC50 for CK1alpha (unknown origin) to IC50 for FLT3-ITD mutant (unknown origin)
[15] = tested on: Z-138; assay: Antiproliferative activity against human Z138 cells assessed as reduction in cell viability incubated for 72 hrs by CellTiter 96 Aqueous One Solution Cell Proliferation Assay; type: functional, cell-based; settings: Z-138, 72 h
[16] = tested on: JeKo-1; assay: Antiproliferative activity against human JeKo-1 cells assessed as reduction in cell viability incubated for 72 hrs by CellTiter 96 Aqueous One Solution Cell Proliferation Assay; type: functional, cell-based; settings: JeKo-1, 72 h
[17] = tested on: MM1.S; assay: Antiproliferative activity against human MM1.S cells assessed as reduction in cell viability incubated for 72 hrs by CellTiter 96 Aqueous One Solution Cell Proliferation Assay; type: functional, cell-based
[18] = target: T1, Voltage-gated inwardly rectifying potassium channel KCNH2 (Homo sapiens, UniProt Q12809); assay: Inhibition of hERG expressed in HEK293 cells assessed as inhibition of channel current amplitude at 100 uM by whole cell patch clamp analysis; type: toxicity, cell-based; settings: hek293, 100 µM
[19] = target: T1, Voltage-gated inwardly rectifying potassium channel KCNH2; assay: Inhibition of hERG expressed in HEK293 cells assessed as inhibition of channel current amplitude by whole cell patch clamp analysis; type: toxicity, cell-based
[20] = target: Receptor-type tyrosine-protein kinase FLT3 (Homo sapiens) (UniProt P36888); assay: Inhibition of FLT3 in human MV4-11 cells assessed as inhibition of ERK phosphorylation at Tyr204 residue measured after 90 mins by western blot analysis; type: cell-based; settings: dose 20-100 nM
[21] = target: Receptor-type tyrosine-protein kinase FLT3 (Homo sapiens) (UniProt P36888); assay: Inhibition of FLT3 in human MV4-11 cells assessed as inhibition of FLT3 phosphorylation at 20 nM measured after 90 mins by western blot analysis; type: cell-based
[22] = target: T2, Serine/threonine-protein kinase Chk1 (Homo sapiens) (UniProt O14757); assay: Inhibition of CHK1 in human MV4-11 cells assessed as increase in CHK1 phosphorylation at Ser345 residue at 50 to 200 nM measured after 90 mins by western blot analysis; type: cell-based; settings: dose 50-200 nM
T2 sequence (whole entry): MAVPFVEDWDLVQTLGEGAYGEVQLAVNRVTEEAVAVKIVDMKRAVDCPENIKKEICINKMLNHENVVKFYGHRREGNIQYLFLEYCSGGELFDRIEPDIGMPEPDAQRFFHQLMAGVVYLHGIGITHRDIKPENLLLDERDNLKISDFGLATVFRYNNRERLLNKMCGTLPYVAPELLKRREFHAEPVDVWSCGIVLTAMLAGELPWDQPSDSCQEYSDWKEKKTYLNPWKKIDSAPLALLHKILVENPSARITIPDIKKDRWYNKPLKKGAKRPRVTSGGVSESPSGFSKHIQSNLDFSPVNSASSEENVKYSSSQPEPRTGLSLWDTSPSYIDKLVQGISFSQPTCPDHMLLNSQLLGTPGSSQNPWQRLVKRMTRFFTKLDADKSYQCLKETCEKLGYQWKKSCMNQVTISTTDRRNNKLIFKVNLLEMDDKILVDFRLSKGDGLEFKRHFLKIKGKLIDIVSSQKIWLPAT

[23] = target: T2, Serine/threonine-protein kinase Chk1 (Homo sapiens); assay: Inhibition of CHK1 in human MV4-11 cells assessed as upregulation of p53 protein expression measured after 90 mins by western blot analysis; type: cell-based; settings: dose 50-200 nM
[24] = tested on: MV4-11; assay: Antitumor activity against human MV4-11 cells xenografted in nu/nu mouse assessed as reduction in tumor weight at 3 mg/kg, po qd for 22 days; type: functional, organism-based; settings: time 22.0 day
[25] = Toxicity against nu/nu mouse xenografted with human MV4-11 cells assessed as body weight changes at 1 to 3 mg/kg, po qd for 22 days; type: organism-based; settings: in vivo, 528 h, dose 1-3 mg/kg, time 22 day
[26] = tested on: MOLM-13; assay: Antitumor activity against human MOLM-13 cells xenografted in NSG mouse assessed as prolongation of animal's survival at 15 mg/kg, po qd for 26 days; type: functional, organism-based; settings: time 26.0 day
[27] = tested on: MOLM-13; assay: Antitumor activity against human MOLM-13 cells xenografted in NSG mouse assessed as animal's survival rate at 30 mg/kg, po qd for 26 days (reference value: 17 days); type: functional; settings: time 26 day
[28] = Toxicity against NSG mouse xenografted with human MOLM-13 cells assessed as body weight loss at 15 to 30 mg/kg, po qd for 26 days; type: organism-based; settings: in vivo, 624 h, dose 15-30 mg/kg, time 26 day
[29] = Acute toxicity in ICR mouse assessed as animal's death at 300 mg/kg, ig and measured for 7 days; type: organism-based; settings: in vivo, po, 168 h, time 7 day
[30] = Acute toxicity in ICR mouse assessed as morphological changes in liver at 300 mg/kg, ig and measured for 7 days by Hematoxylin-Eosin staining based analysis; type: organism-based; settings: in vivo, po, 168 h, time 7 day
[31] = target: Receptor-type tyrosine-protein kinase FLT3 (Homo sapiens, UniProt P36888, D835Y)
Description: Inhibition of FLT3 D835Y mutant (unknown origin) using peptide substrate TK-S and ATP as substrate incubated for 1 hr by HTRF assay

[32] = target: T3, Serine/threonine-protein kinase Chk1 (Homo sapiens, UniProt O14757)
T3 sequence (O14757 whole entry): T2 sequence (whole entry)
Description: Inhibition of CHK1 (unknown origin) using peptide substrate S1 and ATP as substrate incubated for 1 hr by HTRF assay

T1 sequence (Q12809 whole entry): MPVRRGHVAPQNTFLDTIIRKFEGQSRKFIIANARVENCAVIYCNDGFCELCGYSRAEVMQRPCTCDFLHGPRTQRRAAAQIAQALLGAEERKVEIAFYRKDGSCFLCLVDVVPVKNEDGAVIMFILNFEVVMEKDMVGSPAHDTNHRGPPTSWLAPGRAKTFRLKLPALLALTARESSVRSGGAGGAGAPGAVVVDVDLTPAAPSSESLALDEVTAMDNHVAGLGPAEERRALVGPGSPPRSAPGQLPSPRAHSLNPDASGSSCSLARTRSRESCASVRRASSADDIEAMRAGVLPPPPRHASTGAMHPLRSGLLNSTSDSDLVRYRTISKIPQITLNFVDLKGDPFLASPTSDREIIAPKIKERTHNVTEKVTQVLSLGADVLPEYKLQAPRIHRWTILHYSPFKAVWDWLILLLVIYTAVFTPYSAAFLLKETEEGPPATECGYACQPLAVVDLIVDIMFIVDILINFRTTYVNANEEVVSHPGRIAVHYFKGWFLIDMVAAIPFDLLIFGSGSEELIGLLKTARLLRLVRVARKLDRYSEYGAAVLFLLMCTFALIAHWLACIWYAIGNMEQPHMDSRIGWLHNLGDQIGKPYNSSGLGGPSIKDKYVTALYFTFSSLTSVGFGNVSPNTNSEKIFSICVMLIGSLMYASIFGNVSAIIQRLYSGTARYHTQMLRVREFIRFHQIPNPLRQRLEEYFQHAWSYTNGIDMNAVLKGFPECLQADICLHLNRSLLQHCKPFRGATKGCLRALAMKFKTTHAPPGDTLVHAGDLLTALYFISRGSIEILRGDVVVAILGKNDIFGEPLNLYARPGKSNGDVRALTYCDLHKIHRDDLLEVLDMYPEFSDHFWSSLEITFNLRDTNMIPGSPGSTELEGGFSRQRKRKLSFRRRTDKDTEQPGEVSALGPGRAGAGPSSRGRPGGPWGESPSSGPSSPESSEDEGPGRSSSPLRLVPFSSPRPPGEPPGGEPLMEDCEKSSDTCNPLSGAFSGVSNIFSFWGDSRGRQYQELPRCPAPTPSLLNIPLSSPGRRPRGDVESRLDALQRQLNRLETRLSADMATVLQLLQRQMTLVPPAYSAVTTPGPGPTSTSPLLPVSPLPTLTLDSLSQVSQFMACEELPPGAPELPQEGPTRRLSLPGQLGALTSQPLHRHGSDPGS
Sequence of hERG (KCNH2) (Q12809 whole entry): as above
Sequence of Mast/stem cell growth factor receptor Kit (P10721 whole entry): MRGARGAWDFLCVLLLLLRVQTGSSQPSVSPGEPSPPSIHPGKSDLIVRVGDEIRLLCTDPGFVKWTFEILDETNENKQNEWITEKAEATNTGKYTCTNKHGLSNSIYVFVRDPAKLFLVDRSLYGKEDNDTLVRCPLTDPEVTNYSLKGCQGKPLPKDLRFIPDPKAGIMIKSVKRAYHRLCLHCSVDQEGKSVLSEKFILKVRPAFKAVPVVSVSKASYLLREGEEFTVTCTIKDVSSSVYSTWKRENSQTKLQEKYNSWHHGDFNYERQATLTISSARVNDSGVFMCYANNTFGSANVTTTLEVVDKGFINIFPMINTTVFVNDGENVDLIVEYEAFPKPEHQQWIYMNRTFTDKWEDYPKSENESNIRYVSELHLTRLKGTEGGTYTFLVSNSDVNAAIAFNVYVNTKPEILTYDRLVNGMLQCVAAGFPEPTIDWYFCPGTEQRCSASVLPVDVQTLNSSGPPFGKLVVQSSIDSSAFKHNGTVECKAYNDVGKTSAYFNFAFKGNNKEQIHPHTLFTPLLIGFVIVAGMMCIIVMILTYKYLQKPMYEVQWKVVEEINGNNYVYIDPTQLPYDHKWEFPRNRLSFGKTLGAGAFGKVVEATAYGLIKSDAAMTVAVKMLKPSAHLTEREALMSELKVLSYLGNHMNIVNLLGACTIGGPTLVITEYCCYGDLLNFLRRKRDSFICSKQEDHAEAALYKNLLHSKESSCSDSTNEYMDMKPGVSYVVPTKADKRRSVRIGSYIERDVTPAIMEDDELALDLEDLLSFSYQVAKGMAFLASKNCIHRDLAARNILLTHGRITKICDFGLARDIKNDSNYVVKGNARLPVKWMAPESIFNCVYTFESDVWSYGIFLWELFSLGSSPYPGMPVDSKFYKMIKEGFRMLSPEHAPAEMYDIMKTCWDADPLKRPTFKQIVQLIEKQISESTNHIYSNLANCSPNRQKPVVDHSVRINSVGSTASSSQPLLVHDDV

## CC(C)(O)CC(=O)N1CCc2cc(Nc3ncc(C(F)(F)F)c(N[C@H]4CC[C@@H](N)CC4)n3)ccc2C1
[1]
  IC50: < 10 nM
[2]
  inhibition at 20 µM: 2.37%
[3]
  IC50: 1870 nM
[4]
  Activity: Active
[5]
  Ratio IC50: > 100
[6]
  Ratio IC50: > 100
[7]
  Ratio IC50: > 100
[8]
  Ratio IC50: > 100
[9]
  Ratio IC50: > 100
[10]
  Ratio IC50: > 100
[11]
  Ratio IC50: > 100
[12]
  Ratio IC50: > 100
[13]
  Ratio IC50: > 100
[14]
  Ratio IC50: > 100
[15]
  IC50: 115 nM
[16]
  IC50: 260 nM
[17]
  Activity: inactive
[18]
  inhibition (INH): Active
[19]
  IC50: 58400 nM
[20]
  inhibition: Dose-Dependent Effect
[21]
  inhibition: 100%
[22]
  inhibition: Active
[23]
  inhibition: Dose-Dependent Effect
[24]
  Activity: Active
[25]
  Activity: Non-Toxic
[26]
  Activity: inactive
[27]
  Survival: 22 days
[28]
  Activity: Non-Toxic
[29]
  Activity: Non-Toxic
[30]
  Activity: Non-Toxic
[31]
  IC50: 1.08 nM
[32]
  IC50: 9.8 nM
